In ChEMBL document CHEMBL1201862, “PubChem BioAssay data set” (2004):
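Test compounds were applied to cells in 96-well plates for 48 hours at 5 doses. GI50 is the concentration that inhibits growth by half.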 Activity calls are given as the source filed them. Cut-off read from the data, not from the text of the source: active = GI50 up to about 1.1 µM and inactive = higher.

What was measured:
Assay in all cases: DTP human tumour cell line panel, 48 h
Hs-578T = system: Hs-578T
OVCAR-3 = system: OVCAR-3
HCC 2998 = system: HCC 2998
SN12C = system: SN12C
BT-549 = system: BT-549
MOLT-4 = system: MOLT-4
NCI-H226 = system: NCI-H226
MCF7 = system: MCF7
A549 = system: A549
K562 = system: K562
TK-10 = system: TK-10
SR = system: SR
PC-3 = system: PC-3
SF-539 = system: SF-539
SW-620 = system: SW-620
HCT-15 = system: HCT-15
A498 = system: A498
HL-60 = system: HL-60
CCRF-CEM = system: CCRF-CEM
SK-MEL-2 = system: SK-MEL-2
EKVX = system: EKVX
SK-OV-3 = system: SK-OV-3
RXF 393 = system: RXF 393
HOP-92 = system: HOP-92
MDA-N = system: MDA-N
Malme-3M = system: Malme-3M
HT-29 = system: HT-29
T47D = system: T47D
IGROV-1 = system: IGROV-1
HOP-62 = system: HOP-62
SNB-75 = system: SNB-75
COLO 205 = system: COLO 205
RPMI-8226 = system: RPMI-8226
M14 = system: M14
MDA-MB-435 = system: MDA-MB-435
SK-MEL-28 = system: SK-MEL-28
UO-31 = system: UO-31
U-251 = system: U-251
LOX IMVI = system: LOX IMVI
NCI-H522 = system: NCI-H522
OVCAR-5 = system: OVCAR-5
SNB-19 = system: SNB-19
DU-145 = system: DU-145
ACHN = system: ACHN
SK-MEL-5 = system: SK-MEL-5
MDA-MB-231 = system: MDA-MB-231
SF-295 = system: SF-295
HCT-116 = system: HCT-116
KM12 = system: KM12
UACC-257 = system: UACC-257
NCI-H23 = system: NCI-H23
NCI-H460 = system: NCI-H460
CAKI-1 = system: CAKI-1
SF-268 = system: SF-268
UACC-62 = system: UACC-62

## Cc1ccc(S(=O)(=O)NNC2Oc3cc4c(cc3C(c3ccccc3O)C2C)OCO4)cc1 (stereo not given)
Hs-578T
  GI50: 10.9 µM (inactive)
OVCAR-3
  GI50: 11.4 µM (inactive)
HCC 2998
  GI50: 16.9 µM (inactive)
SN12C
  GI50: 15.3 µM (inactive)
BT-549
  GI50: 13 µM (inactive)
MOLT-4
  GI50: 10.4 µM (inactive)
NCI-H226
  GI50: 12.4 µM (inactive)
MCF7
  GI50: 14.9 µM (inactive)
A549
  GI50: 8.36 µM (inactive)
K562
  GI50: 11.1 µM (inactive)
TK-10
  GI50: 15.5 µM (inactive)
SR
  GI50: 13.3 µM (inactive)
PC-3
  GI50: 10.1 µM (inactive)
SF-539
  GI50: 16.9 µM (inactive)
SW-620
  GI50: 13.7 µM (inactive)
HCT-15
  GI50: 4.9 µM
A498
  GI50: 16.8 µM (inactive)
HL-60
  GI50: 18.4 µM (inactive)
CCRF-CEM
  GI50: 10.2 µM (inactive)
SK-MEL-2
  GI50: 9.62 µM (inactive)
EKVX
  GI50: 10.7 µM (inactive)
SK-OV-3
  GI50: 21.7 µM (inactive)
RXF 393
  GI50: 4.22 µM (inactive)
HOP-92
  GI50: 17.1 µM (inactive)
MDA-N
  GI50: 12.3 µM (inactive)
Malme-3M
  GI50: 12.2 µM (inactive)
HT-29
  GI50: 14.3 µM (inactive)
T47D
  GI50: 12 µM (inactive)
IGROV-1
  GI50: 12.4 µM (inactive)
HOP-62
  GI50: 15.1 µM (inactive)
SNB-75
  GI50: 10.9 µM (inactive)
COLO 205
  GI50: 14.7 µM (inactive)
RPMI-8226
  GI50: 12.2 µM (inactive)
M14
  GI50: 13.4 µM (inactive)
MDA-MB-435
  GI50: 13 µM (inactive)
SK-MEL-28
  GI50: 15.6 µM (inactive)
UO-31
  GI50: 11 µM (inactive)
U-251
  GI50: 10.3 µM (inactive)
LOX IMVI
  GI50: 15.2 µM (inactive)
NCI-H522
  GI50: 12.4 µM (inactive)
OVCAR-5
  GI50: 16.1 µM (inactive)
SNB-19
  GI50: 12.7 µM (inactive)
DU-145
  GI50: 13 µM (inactive)
ACHN
  GI50: 13.2 µM (inactive)
SK-MEL-5
  GI50: 14.5 µM (inactive)
MDA-MB-231
  GI50: 16 µM (inactive)
SF-295
  GI50: 11.6 µM (inactive)
HCT-116
  GI50: 10.4 µM (inactive)
KM12
  GI50: 12.2 µM (inactive)
UACC-257
  GI50: 10.8 µM (inactive)
NCI-H23
  GI50: 15.7 µM (inactive)
NCI-H460
  GI50: 12.1 µM (inactive)
CAKI-1
  GI50: 11.5 µM (inactive)
SF-268
  GI50: 14 µM (inactive)
UACC-62
  GI50: 15.7 µM (inactive)
